# Measured values taken from patent publication US5739157A, “Diastereomeric pure trifluoromethyl ketone peptide derivatives as inhibitors of human leukocyte elastase” (Zeneca Limited, priority 1994, dated 1998).
# Where two headings read alike, the source gives them in different places.
# Experiments:
# [1] = biological target: T1, human neutrophil elastase (HNE) (Homo sapiens, UniProt P08246); assay: Acute Hemorrhagic Assay: HNE-induced lung hemorrhage; type: in vivo, Syrian hamsters; settings: hamster, hamsters, 50 μg/animal HNE intratracheally, read-out: ED50, inhibition of HNE-induced hemorrhage
# T1 sequence (P08246 30-267): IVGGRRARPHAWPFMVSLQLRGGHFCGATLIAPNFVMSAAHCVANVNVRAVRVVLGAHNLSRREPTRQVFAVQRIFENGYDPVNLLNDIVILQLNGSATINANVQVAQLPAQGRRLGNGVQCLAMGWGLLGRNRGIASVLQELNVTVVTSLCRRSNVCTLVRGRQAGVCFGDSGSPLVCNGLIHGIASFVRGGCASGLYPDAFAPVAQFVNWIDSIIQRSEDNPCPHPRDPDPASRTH
# Experimental: This assay relies on monitoring only the amount of hemorrhage in the lung following intratracheal administration of human neutrophil elastase (HNE). Hemorrhage is quantified by disrupting erythrocytes recovered in lung lavage fluid and comparing that to dilutions of whole hamster blood. […] Male Syrian hamsters (fasted for 16-18 hours prior to use) are lightly anaesthetised with Brevital sodium (30 mg/kg i.p.). […] Four hours after enzyme administration, the animals are killed with an overdose of pentobarbital sodium, the thorax opened and the lungs and heart removed and the lungs cleared of extraneous material. The excised lungs are lavaged with three changes of 2 ml PBS via a tracheal cannula. The recovered lavages are pooled, the volumes (about 5 mL) are recorded and the lavages stored at 4° C. until assayed. […] The optical densities (OD) of the disrupted lavages and blood samples are determined at 540 nm. The (μL blood equivalents)/(mL lavage) are determined by comparing the OD of the test samples with the OD of the standard curve prepared from whole hamster blood. The total μL equivalents of blood recovered is determined by multiplying recovered lavage volume by the (μL blood equivalents)/(mL lavage) for each sample.
# [2] = administered in the above in vivo tests (hamsters)
# [3] = Hygroscopicity of the anhydrous crystalline form; type: physicochemical
# [4] = Epimeric stability in the solid state; type: physicochemical; settings: anhydrous form
smiles,measurement,setting,value
"COc1ccc(C(=O)N[C@H](C(=O)N2CCC[C@H]2C(=O)N[C@H](C(=O)C(F)(F)F)C(C)C)C(C)C)cc1 [compound of the invention, (S)-1-[(S)-2-(4-methoxybenzamido)-3-methylbutyryl]-N-[(S)-2-methyl-1-(trifluoroacetyl)propyl]pyrrolidine-2-carboxamide]",ED50,[1]; i.v. administration,0.59 mg/kg
same,ED50,[1]; oral dosing,5.2 mg/kg
same,overt toxicity,[2],No overt toxicity
same,hygroscopicity,[3],non-hygroscopic
same,epimeric stability,[4],good epimeric stability
